Test results: patent US8541365B2, “Dendrimeric compounds comprising amino acids, hyperbranched core compound, process for preparation of dendrimeric compounds comprising amino acids and hyperbranched core compound, and use thereof” (Instytut Chemii Organicznej, Polska Akademia Nauk, priority 2008, dated 2013)
Read-outs that look alike come from different tables or passages of the source.

How the values were obtained:
C. albicans ATCC 10231 = test system: C. albicans ATCC 10231
Protocol: Values of a minimal inhibitory concentration—MIC of compounds according to the invention for bacterial strains were assayed by a standard method of microdilutions on a liquid substrate (Clinical and Laboratory Standards Institute 2007. Methods for Dilution Antimicrobial Susceptibility Tests for Bacteria That Grow Aerobically. Approved Standard—Seventh Edition. M7-A7. Clinical and Laboratory Standards Institute, Wayne, Pa., USA).
A series of double dilutions of the tested compounds in DMSO was prepared. They were then diluted 95× in CAMHB (Cation Adjusted Mueller—Hinton Broth).
Bacteria were cultured for 24 h at 35° C. under aerobic conditions on a solid TSA (Triptic Soy Agar) medium. A volume of a proper test was 0.1 ml and was composed of: 0.005 ml of a saline suspension of bacteria at a density of 10^7 CFU/ml (final bacteria amount of 5×10^5/ml) and 0.095 ml of a tested compound CAMHB solution. Final concentrations of compounds in the proper test were (μg/ml): 128, 64, 32, 16, 8, 4, 2, 1.
e) C. albicans ATCC 10231.

[1] = test system: human melanoma cells (MEW 155); settings: MEW 155 cells, 3 days culture
Protocol: Human melanoma cells (MEW 155) received from Institute of Oncology were inoculated on Petri dishes (Ø3 cm, Nunc) to the number of about 75 000, suspended in 3 ml of Eagle medium+10% FBS+antibiotics. Immediately after the inoculation, solutions of tested substances were added to the cells (a substance +20 ml PBS) at 0.5 ml per dish. After culturing for 3 days, numbers of cells (all, dead and alive) at each dish were determined with NucleoCounter apparatus (Chemometec).

S. aureus ATCC 25923 = format: cell-based, Staphylococus aureus subsp. aureus; settings: S. aureus ATCC 25923; microdilution in CAMHB, 18 h at 35° C.
Protocol: (§1) Titration plates with a, b, d strains were incubated for 18 h at 35° C. under aerobic conditions, and the c strain was incubated for 18 h at 33° C. under aerobic conditions.
b) Staphylococus aureus subsp. aureus ATCC 25923,

S. aureus ATTC 43300 = format: cell-based, Staphylococus aureus subsp. aureus; settings: S. aureus ATTC 43300; microdilution in CAMHB, 18 h at 33° C.
Protocol: as §1
c) Staphylococus aureus subsp. aureus ATCC 43300,

E. coli ATTC 25922 = format: cell-based, Escherichia coli; settings: E. coli ATTC 25922; microdilution in CAMHB, 18 h at 35° C.
Protocol: as §1
d) Escherichia coli ATCC 25922

P. aeruginosa ATTC 27853 = format: cell-based, Pseudomonas aeruginosa; settings: P. aeruginosa ATTC 27853; microdilution in CAMHB, 18 h at 35° C.
Protocol: as §1
a) Pseudomonas aeruginosa ATCC 27853,

CCCCCCCCCCCCNC(=O)[C@H](CCCN(CCC(=O)NCCNC(=O)[C@H](CCCCN)NC(=O)OCc1ccccc1Cl)CCC(=O)NCCNC(=O)[C@H](CCCCN)NC(=O)OCc1ccccc1Cl)N(CCC(=O)NCCNC(=O)[C@H](CCCCN)NC(=O)OCc1ccccc1Cl)CCC(=O)NCCNC(=O)[C@H](CCCCN)NC(=O)OCc1ccccc1Cl [Compound 109]
Minimal inhibitory concentration (MIC) (C. albicans ATCC 10231): 69 μM/L | Live cells (%) ([1]; concentration 25.7 μMol dm^−3): 1.5%

NC[C@H](NC(=O)OCc1ccccc1)C(=O)NCCNC(=O)CCN(CCCC[C@@H](C(=O)NCCc1c[nH]c2ccccc12)N(CCC(=O)NCCNC(=O)[C@H](CN)NC(=O)OCc1ccccc1)CCC(=O)NCCNC(=O)[C@H](CN)NC(=O)OCc1ccccc1)CCC(=O)NCCNC(=O)[C@H](CN)NC(=O)OCc1ccccc1 [Compound 105]
Minimal inhibitory concentration (MIC) (S. aureus ATCC 25923): 38 μM/L | Minimal inhibitory concentration (MIC) (S. aureus ATTC 43300): 81 μM/L | Minimal inhibitory concentration (MIC) (E. coli ATTC 25922): 81 μM/L | Minimal inhibitory concentration (MIC) (P. aeruginosa ATTC 27853): 81 μM/L | Minimal inhibitory concentration (MIC) (C. albicans ATCC 10231): 81 μM/L | Live cells (%) ([1]; concentration 10.0 μMol dm^−3): 97.7%
